Assay results from patent publication US20230181684A1, “NOVEL ANTIBIOTIC COMPOSITIONS AND METHODS OF MAKING OR USING THE SAME” (priority 2020, published 2023).
Converted amounts (≈) assume the structure as drawn. Numbered stars: 1 amine (or outer) side, 2 acyl side, 3 side chain; on linkers, the order of the positions; unused ones are H or OH. Bridge positions count the residues as written; N and C are the ends. Square brackets hold non-standard residues; d marks the D form. Peptide text beside a SMILES is read from it. * marks the point of attachment. Hpg(αMan(1-2)αMan) = N[C@H](C(=O)O)c1ccc(O[C@H]2O[C@H](CO)[C@@H](O)[C@H](O)[C@@H]2O[C@H]2O[C@H](CO)[C@@H](O)[C@H](O)[C@@H]2O)cc1; Octa(2Z,4E)dienoyl(7-Me) = CC(C)C/C=C/C=C\C(=O)*; X1 = NC(=O)[C@@H](O[*:3])[C@H](N[*:1])C(=O)[*:2]; X3 = O=C([C@@H](N[*:1])c1cc(O)cc(O)c1)[*:2]; Hpg(3-Cl) = N[C@H](C(=O)O)c1ccc(O)c(Cl)c1; d(aThr) = C[C@@H](O)[C@@H](N)C(=O)O; dHpg = N[C@@H](C(=O)O)c1ccc(O)cc1; Hpg = N[C@H](C(=O)O)c1ccc(O)cc1; aThr = C[C@H](O)[C@H](N)C(=O)O; dOrn = NCCC[C@@H](N)C(=O)O; X2 = CC(C)CCCCCCC(=O)*

Columns and labels:
Gram-positive strains = assay: Broth microdilution, Gram-positive strains overall; assay type: cell-based; conditions: Gram-positive strains B. subtilis ATCC 6051, S. aureus ATCC 25923, E. faecalis ATCC 29212
Procedure: (§1) Assessment of antimicrobial activity of chersinamycin: Chersinamycin was examined for its ability to inhibit bacterial growth by broth microdilution assays against Gram-positive strains B. subtilis ATCC 6051, S. aureus ATCC 25923, and E. faecalis ATCC 29212 and Gram-negative strain E. coli ATCC 25922.
(§2) Minimal inhibitory assays. Antibacterial activity of chersinamycin and positive controls (vancomycin, ampicillin, and ramoplanin A2) were determined by the broth microdilution assay method. Briefly, bacterial strains were grown in cation-adjusted Mueller-Hinton broth. A microtiter plate was prepared by coating wells in 0.2% BSA, and antimicrobial peptides were added with 2-fold dilution steps ranging from 64-0.125 μg mL^−1. Bacteria was added to a final concentration of 10^5 colony forming units and final volume of 100 μL. Plates were incubated at 37° C. for 24 hours, and the MIC was read as the lowest peptide concentration for which no bacterial growth was visualized. Reported values are the average of two replicates.

E. coli ATCC 25922 = system: E. coli ATCC 25922
Procedure: as §1, §2

[1] = 1% triethylamine in water, room temperature
Description: Macrolactone selective hydrolysis. […] The solution was allowed to sit at room temperature for one hour, and then analyzed by MALDI-TOF. After determining that the reaction had gone to completion by complete consumption of the starting material, the reaction mixture was dried and reconstituted in a water/acetonitrile mixture for further MS/MS analyses.

[2] = Boger alanine scan comparators; cited from earlier work
S. aureus ATCC 25923 = conditions: ATCC 25923, 24 h
Procedure: as §1, §2

B. subtilis ATCC 6051 = conditions: ATCC 6051, 24 h
Procedure: as §1, §2

E. faecalis ATCC 29212 = conditions: ATCC 29212, 24 h
Procedure: as §1, §2

[3] = administered by intraperitoneal injection; cited from earlier work
[4] = system: vancomycin-susceptible and vancomycin-resistant C. difficile strains; conditions: cited from earlier work
[5] = system: Gram-positive bacterial infections; conditions: cited from earlier work
[6] = cited from earlier work
[7] = delivered intravenously; cited from earlier work

In the case of CC(C)CCCCCCC(=O)N[C@@H](CC(N)=O)C(=O)N[C@@H]1C(=O)N[C@H](c2ccc(O)cc2)C(=O)N[C@H](CCCN)C(=O)N[C@H]([C@@H](C)O)C(=O)N[C@@H](c2ccc(O)cc2)C(=O)N[C@H](c2ccc(O)cc2)C(=O)N[C@@H]([C@H](C)O)C(=O)N[C@@H](Cc2ccccc2)C(=O)N[C@H](CCCN)C(=O)N[C@@H](c2ccc(O[C@H]3O[C@H](CO)[C@@H](O)[C@H](O)[C@@H]3O[C@H]3O[C@H](CO)[C@@H](O)[C@H](O)[C@@H]3O)cc2)C(=O)N[C@H]([C@@H](C)O)C(=O)N[C@@H](c2cc(O)cc(O)c2)C(=O)NCC(=O)N[C@@H](C(C)C)C(=O)N[C@H](C)C(=O)N[C@@H](c2ccc(O)c(Cl)c2)C(=O)O[C@@H]1C(N)=O [Chersinamycin, chersinamycin] (X2-N[X1][dHpg][dOrn][d(aThr)][Hpg][dHpg][aThr]F[dOrn][Hpg(αMan(1-2)αMan)][d(aThr)][X3]GV[dA][Hpg(3-Cl)]; ester 2-C; N-terminus assumed), the “ability to inhibit bacterial growth, in words” value (Gram-positive strains) is reported as “potent antimicrobial activity”, the “ability to inhibit bacterial growth, in words” value (E. coli ATCC 25922; Gram-negative strain E. coli ATCC 25922) is reported as “ineffective” and the “stability of peptide macrocycle to base” value [1] is reported as “highly base labile”.
In the case of ramoplanin A2 aglycon, the MIC [2] is given as 0.11 µg/mL.
In the case of CC(C)C/C=C/C=C\C(=O)N[C@@H](CC(N)=O)C(=O)N[C@@H]1C(=O)N[C@H](c2ccc(O)cc2)C(=O)N[C@H](CCCN)C(=O)N[C@H]([C@@H](C)O)C(=O)N[C@@H](c2ccc(O)cc2)C(=O)N[C@H](c2ccc(O)cc2)C(=O)N[C@@H]([C@H](C)O)C(=O)N[C@@H](Cc2ccccc2)C(=O)N[C@H](CCCN)C(=O)N[C@@H](c2ccc(O[C@H]3O[C@H](CO)[C@@H](O)[C@H](O)[C@@H]3O[C@H]3O[C@H](CO)[C@@H](O)[C@H](O)[C@@H]3O)cc2)C(=O)N[C@H]([C@@H](C)O)C(=O)N[C@@H](c2ccc(O)cc2)C(=O)NCC(=O)N[C@@H](CC(C)C)C(=O)N[C@H](C)C(=O)N[C@@H](c2ccc(O)c(Cl)c2)C(=O)O[C@@H]1C(N)=O [Ramoplanin, ramoplanin A2] ({Octa(2Z,4E)dienoyl(7-Me)}-N[X1][dHpg][dOrn][d(aThr)][Hpg][dHpg][aThr]F[dOrn][Hpg(αMan(1-2)αMan)][d(aThr)][Hpg]GL[dA][Hpg(3-Cl)]; ester 2-C), the MIC (S. aureus ATCC 25923) is reported as 0.5 µg/mL (≈ 0.196 µM), the MIC (E. coli ATCC 25922; ATCC 25922, 24 h) is reported as >64 µg/mL and the MIC (B. subtilis ATCC 6051) is reported as <0.125 µg/mL. For the same compound, the MIC (E. faecalis ATCC 29212) was 0.5 µg/mL (≈ 0.196 µM), the stability of macrolactone [3] was “susceptible to hydrolysis” and the “MICs in vitro against C. difficile” value [4] was 0.25 to 0.50 µg/mL. For the same compound, the MICs in vitro [5] was 0.125 to 2 µg/mL, the oral absorption ([6]; in vivo, po) was “not orally absorbed” and the colonic concentrations ([6]; oral delivery) was > 300 µg/mL. For the same compound, the hemolysis [7] was “mild to moderately hemolytic”.
In the case of “[Dap2]-ramoplanin A2 aglycon [[Dap2]-ramoplanin aglycon]”, the MIC [2] is listed as 0.07 µg/mL.
